Laboratory results from patent US11952365B2, “Anti-viral compounds” (Aligos Therapeutics, Inc., priority 2020, dated 2024).
Read-outs that look alike come from different tables or passages of the source.

Legend:
[1] = Cytotoxicity plates without OC43 virus (cell-titer-glo); format: cell-based, human; details: human; HeLa cells without OC43 virus, class symbols
How it was run: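 HeLa cells seeded overnight, then treated with serially diluted compounds in 2% FBS EMEM, uninfected, in parallel with the OC43 antiviral plates. Incubated 6 days at 33 °C; viability read by CellTiter-Glo luminescence.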

[2] = in vitro; details: human
[3] = target: HRV3C (Human rhinovirus 14, UniProt P03303); assay: HRV3C protease assay (duplex, SAMDI-MS); format: biochemical, HRV; details: 30 mins preincubation
How it was run: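 Enzyme preincubated 30 min with compound at ambient temperature, then both biotinylated peptide substrates added (duplex with 3CLpro); 30 min reaction quenched with 0.5% formic acid (final). Product read by SAMDI-MS as product/internal-standard AUC ratio; IC50 from four-parameter fit.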

[4] = system: SARS-CoV-2-GHB-03021/2020; assay: microbe, parasite or virus in culture; format: cell-based
[5] = system: SARS-CoV-2-GHB-03021/2020; assay: SARS-CoV-2 Infection Model in Huh7 Cells; format: cell-based; details: Severe acute respiratory syndrome coronavirus 2, Huh-7, 96 h, SARS-CoV-2, day 4 p.i., MTS
[6] = target: T1, human cathepsin L (Homo sapiens, UniProt P07711); assay: cathepsin L assay; format: biochemical; details: 10 pM human cathepsin L, Z-FR-AMC 2 μM, class symbols
T1 construct: purchased R&D Systems
How it was run: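 Human cathepsin L at 10 pM was preincubated 30 min with compound, then reaction started with Z-FR-AMC (2 μM final). Fluorescence (355/460 nm) read every 2 min for 30 min; IC50 from four-parameter curve fit.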

[7] = system: human beta-coronavirus OC43; assay: microbe, parasite or virus in culture; format: cell-based; details: OC43 in HeLa cells, 6 days at 33° C., read-out: EC50
[8] = target: 3CLpro (Severe acute respiratory syndrome coronavirus 2, UniProt P0DTD1); assay: SARS-CoV-2 3CLpro protease assay (duplex, SAMDI-MS); format: biochemical; set-up: For the duplex assay, 3CLpro and HRV3C was added; details: 30 mins preincubation, class symbols
[9] = in vitro; details: African green monkey, VeroE6 + CP (CC50)
[10] = HRV3C, class symbols, read-out: HRV IC50
[11] = Severe acute respiratory syndrome coronavirus 2, Vero C1008, 96 h; read-out: VeroE6 + CP (EC50)
[12] = Betacoronavirus 1, OC43, HeLa, 144 h, class symbols
[13] = 3CLpro, read-out: SARS-Cov-2 IC50
[14] = Vero E6-eGFP cells with CP-100356, absence of virus, MTS, class symbols
[15] = Vero E6-eGFP cells with CP-100356, absence of virus, MTS, numeric bounds
[16] = HRV3C, bound, read-out: HRV IC50

Structure (SMILES): COc1cccc2[nH]c(C(=O)N3C[C@@H]4CCC[C@@H]4[C@H]3C(=O)N[C@@H](CC3CC(C)(C)NC3=O)C(=O)COCc3ccccc3)cc12 (relative stereo) [Compound 70A_1, (1S,3aR,6aS)—N-[(2S)-4-(benzyloxy)-1-[(3R*)-5,5-dimethyl-2-oxopyrrolidin-3-yl]-3-oxobutan-2-yl]-2-(4-methoxy-1H-indole-2-carbonyl)-hexahydro-1H-cyclopenta[c]pyrrole-1-carboxamide]
- CC50 at 6 days [1]: > 10 µM
- CC50 [2]: > 10 µM
- IC50 [3, 10]: 2 to 20 µM
- EC50 [4, 11]: 1 to 10 µM
- EC50 ([5]; class symbols): 1 to 10 µM
- IC50 [6]: ≥ 10 µM
- EC50 [7, 12]: < 0.1 µM
- IC50 [8, 13]: 0.02 to 0.2 µM
- CC50 [9, 14]: > 10 µM

Structure (SMILES): COc1cccc2[nH]c(C(=O)N3C[C@@H]4CCC[C@@H]4[C@H]3C(=O)N[C@@H](CC3CC(C)(C)NC3=O)C(=O)CO)cc12 (relative stereo) [Compound 70_1, (1S,3aR,6aS)—N—((S)-1-((R*)-5,5-dimethyl-2-oxopyrrolidin-3-yl)-4-hydroxy-3-oxobutan-2-yl)-2-(4-methoxy-1H-indole-2-carbonyl)octahydrocyclopenta[c]pyrrole-1-carboxamide]
- CC50 at 6 days [1]: > 10 µM
- CC50 [2]: > 10 µM
- IC50 [3, 10]: 0.2 to 2 µM
- EC50 [4, 11]: < 1 µM
- EC50 ([5]; class symbols): 1 to 10 µM
- IC50 [6]: ≥ 10 µM
- EC50 [7, 12]: 0.1 to 1 µM
- IC50 [8, 13]: < 0.02 µM
- CC50 [9, 14]: > 10 µM

Structure (SMILES): COc1cccc2[nH]c(C(=O)N3C[C@@H]4CCCC[C@@H]4[C@H]3C(=O)N[C@@H](C[C@@H]3CCCNC3=O)C(=O)COCc3ccccc3)cc12 (single isomer, unassigned) [Compound 59A_1]
- CC50 at 6 days [1]: > 10 µM
- CC50 [2]: > 10 µM
- IC50 [3, 10]: 2 to 20 µM
- EC50 [4, 11]: < 1 µM
- EC50 ([5]; class symbols): < 1 µM
- IC50 [6]: ≥ 10 µM
- EC50 [7, 12]: 0.1 to 1 µM
- IC50 [8, 13]: 0.02 to 0.2 µM
- CC50 [9, 14]: > 10 µM

Structure (SMILES): COc1cccc2[nH]c(C(=O)N3C[C@@H]4CCC[C@@H]4[C@H]3C(=O)N[C@@H](CC3CC(C)(C)NC3=O)C(=O)C(=O)NC3CC3)cc12 (single isomer, unassigned) [Compound 95, (3S)-3-{[(1S,3aR,6aS)-2-(4-methoxy-1H-indole-2-carbonyl)-hexahydro-1H-cyclopenta[c]pyrrol-1-yl]formamido}-N-cyclopropyl-4-[(3R*)-5,5-dimethyl-2-oxopyrrolidin-3-yl]-2-oxobutanamide]
- CC50 at 6 days [1]: > 10 µM
- CC50 [2]: > 50 µM
- IC50 ([3]; HRV IC50, HRV3C, class symbols): 0.2 to 2 µM
- EC50 [4, 11]: 1 to 10 µM
- EC50 ([5]; class symbols): 1 to 10 µM
- IC50 [6]: ≥ 10 µM
- EC50 [7, 12]: 0.1 to 1 µM
- IC50 [8, 13]: 0.02 to 0.2 µM
- CC50 [9, 15]: > 50 µM

Structure (SMILES): COc1cccc2[nH]c(C(=O)N3C[C@@H]4CCC[C@@H]4[C@H]3C(=O)NC(CN3CCCC3=O)C(=O)C(=O)NC3CC3)cc12 (single isomer, unassigned) [Compound 113A, (1S,3aR,6aS)—N—((S*)-4-(cyclopropylamino)-3,4-dioxo-1-(2-oxopyrrolidin-1-yl)butan-2-yl)-2-(4-methoxy-1H-indole-2-carbonyl)octahydrocyclopenta[c]pyrrole-1-carboxamide]
- CC50 at 6 days [1]: > 10 µM
- CC50 [2]: > 50 µM
- IC50 [3, 16]: > 10 µM
- EC50 [4, 11]: 10 to 100 µM
- EC50 ([5]; class symbols): 10 to 100 µM
- IC50 [6]: ≥ 10 µM
- EC50 [7, 12]: 1 to 10 µM
- IC50 [8, 13]: 0.2 to 2 µM
- CC50 [9, 15]: > 50 µM

Structure (SMILES): COc1cccc2[nH]c(C(=O)N3C[C@@H]4CCC[C@@H]4[C@H]3C(=O)N[C@H](CN3CCCC3=O)C(=O)C(=O)NC3CC3)cc12 (single isomer, unassigned) [Compound 113B]
- CC50 at 6 days [1]: > 10 µM
- CC50 [2]: > 50 µM
- IC50 [3, 10]: 2 to 20 µM
- EC50 [4, 11]: 10 to 100 µM
- EC50 ([5]; numeric bounds): > 50 µM
- IC50 [6]: ≥ 10 µM
- EC50 [7, 12]: 1 to 10 µM
- IC50 [8, 13]: 2 to 20 µM
- CC50 [9, 15]: > 50 µM

Structure (SMILES): O=C(NC1CC1)C(=O)C(CC1CC2(CC2)NC1=O)NC(=O)[C@@H]1[C@H]2CCC[C@H]2CN1C(=O)c1cc2c(Cl)cc(Cl)cc2[nH]1 (single isomer, unassigned) [Compound 116A, (1S,3aR,6aS)—N-(4-(cyclopropylamino)-3,4-dioxo-1-((R*)-5-oxo-4-azaspiro[2.4]heptan-6-yl)butan-2-yl)-2-(4,6-dichloro-1H-indole-2-carbonyl)octahydrocyclopenta[c]pyrrole-1-carboxamide]
- CC50 at 6 days [1]: > 10 µM
- CC50 [2]: > 10 µM
- IC50 [3, 10]: 0.2 to 2 µM
- EC50 [4, 11]: 1 to 10 µM
- EC50 ([5]; class symbols): < 1 µM
- IC50 [6]: ≥ 10 µM
- EC50 ([7]; class symbols): 0.1 to 1 µM
- IC50 [8, 13]: 0.02 to 0.2 µM
- CC50 [9, 15]: > 50 µM

Structure (SMILES): O=C(NCc1ccccc1)C(=O)C(C[C@@H]1CCNC1=O)NC(=O)[C@@H]1C[C@@H](c2ccccc2)CN1C(=O)c1cc2ccccc2[nH]1 (stereo partly shown) [Compound 7]
- CC50 at 6 days [1]: > 10 µM
- CC50 [2]: > 10 µM
- IC50 [3, 10]: 0.2 to 2 µM
- EC50 [4, 11]: 1 to 10 µM
- EC50 ([5]; class symbols): 1 to 10 µM
- IC50 [6]: < 0.1 µM
- EC50 [7, 12]: 0.1 to 1 µM
- IC50 [8, 13]: 0.2 to 2 µM
- CC50 [9, 14]: > 10 µM

Structure (SMILES): O=C[C@H](C[C@@H]1CCCNC1=O)NC(=O)[C@@H]1[C@H]2CCC[C@H]2CN1C(=O)c1cc2ccccc2[nH]1 [Compound 15, (1S,3aR,6aS)-2-(1H-indole-2-carbonyl)-N—((S)-1-oxo-3-((S)-2-oxopiperidin-3-yl)propan-2-yl)octahydrocyclopenta[c]pyrrole-1-carboxamide]
- CC50 at 6 days [1]: > 10 µM
- CC50 [2]: > 100 µM
- IC50 [3, 10]: 0.02 to 0.2 µM
- EC50 [4, 11]: 1 to 10 µM
- EC50 ([5]; class symbols): 1 to 10 µM
- IC50 [6]: 1 to 10 µM
- EC50 [7, 12]: 0.1 to 1 µM
- IC50 [8, 13]: < 0.02 µM
- CC50 [9, 15]: > 100 µM

Structure (SMILES): COc1cccc2[nH]c(C(=O)N3C[C@@H]4CCC[C@@H]4[C@H]3C(=O)NC(C[C@@H]3CCNC3=O)C(=O)C(=O)NCc3ccccc3)cc12 (stereo partly drawn) [Compound 16, 3-[[(1S,3aR,6aS)-2-(4-methoxy-1H-indole-2-carbonyl)-hexahydro-1H-cyclopenta[c]pyrrol-1-yl]formamido]-N-benzyl-2-oxo-4-[(3S)-2-oxopyrrolidin-3-yl]butanamide]
- CC50 at 6 days [1]: > 10 µM
- CC50 [2]: > 10 µM
- IC50 [3, 10]: 0.2 to 2 µM
- EC50 [4, 11]: 1 to 10 µM
- EC50 ([5]; class symbols): 1 to 10 µM
- IC50 [6]: ≥ 10 µM
- EC50 [7, 12]: 0.1 to 1 µM
- IC50 [8, 13]: 0.02 to 0.2 µM
- CC50 [9, 14]: > 10 µM

Structure (SMILES): CC(C)NC(=O)C(=O)C(C[C@@H]1CCCNC1=O)NC(=O)[C@@H]1[C@H]2CCC[C@H]2CN1C(=O)c1cc2ccccc2[nH]1 (stereo partly drawn) [Compound 18, (1S,3aR,6aS)-2-(1H-indole-2-carbonyl)-N-(4-(isopropylamino)-3,4-dioxo-1-((S)-2-oxopiperidin-3-yl)butan-2-yl)octahydrocyclopenta[c]pyrrole-1-carboxamide]
- CC50 at 6 days [1]: > 10 µM
- CC50 [2]: > 100 µM
- IC50 [3, 10]: 0.2 to 2 µM
- EC50 [4, 11]: 1 to 10 µM
- EC50 ([5]; class symbols): 1 to 10 µM
- IC50 [6]: ≥ 10 µM
- EC50 [7, 12]: 0.1 to 1 µM
- IC50 [8, 13]: 0.02 to 0.2 µM
- CC50 [9, 15]: > 100 µM

Structure (SMILES): COc1cccc2[nH]c(C(=O)N3C[C@@H]4CCC[C@@H]4[C@H]3C(=O)N[C@@H](C[C@@H]3CCCNC3=O)C(=O)CO)cc12 [Compound 41, (1S,3aR,6aS)—N-[(2S)-4-hydroxy-3-oxo-1-[(3S)-2-oxopiperidin-3-yl]butan-2-yl]-2-(4-methoxy-1H-indole-2-carbonyl)-hexahydro-1H-cyclopenta[c]pyrrole-1-carboxamide]
- CC50 at 6 days [1]: > 10 µM
- CC50 [2]: > 100 µM
- IC50 [3, 16]: > 10 µM
- EC50 [4, 11]: 1 to 10 µM
- EC50 ([5]; class symbols): 1 to 10 µM
- IC50 [6]: ≥ 10 µM
- EC50 [7, 12]: < 0.1 µM
- CC50 [9, 15]: > 100 µM

Structure (SMILES): CS(=O)(=O)c1cccc2[nH]c(C(=O)N3C[C@@H]4CCC[C@@H]4[C@H]3C(=O)N[C@@H](C[C@@H]3CCNC3=O)C(=O)CO)cc12 [Compound 150, (1S,3aR,6aS)—N-[(2S)-4-hydroxy-3-oxo-1-[(3S)-2-oxopyrrolidin-3-yl]butan-2-yl]-2-(4-methanesulfonyl-1H-indole-2-carbonyl)-hexahydro-1H-cyclopenta[c]pyrrole-1-carboxamide]
- CC50 at 6 days [1]: > 10 µM
- CC50 [2]: > 50 µM
- EC50 ([4]; Severe acute respiratory syndrome coronavirus 2, Vero C1008, 96 h, read-out: VeroE6 + CP (EC50)): > 50 µM
- EC50 ([5]; numeric bounds): > 50 µM
- IC50 [6]: ≥ 10 µM
- EC50 ([7]; Betacoronavirus 1, OC43, HeLa, 144 h, bound): > 10 µM
- IC50 ([8]; SARS-Cov-2 IC50, 3CLpro): 0.2 to 2 µM
- CC50 [9]: > 50 µM
